Assay results taken from patent publication US20230192895A1, “PHARMACOKINETIC & PHARMACODYNAMIC MODEL FOR DETERMINING EFFECTIVE DOSE OF ANTI-TICAGRELOR ANTIBODY” (PhaseBio Pharmaceuticals, Inc., priority 2021, published 2023).
Values belong to the molecule of their own block, whether it stands above or below them.

Key:
[1] = tested on: PB2452 binding to biotinylated ticagrelor; experiment: Selectivity of PB2452 by competition binding with PB2452 to biotinylated ticagrelor; design: species or system human
Text: The chemical starting point for the development of ticagrelor was adenosine triphosphate (ATP), and ticagrelor retains an adenosine-like core.

[2] = tested on: P2Y12 reactivity units (PRU); experiment: animal or person
Text: where Base refers to the baseline (prior to administration of Ticagrelor) value. Emaxi, EC50i, and the Hill coefficient (γ) are parameters to be estimated. The same structural model was used for PRU, VASP, and LTA.
The Emax parameter relating TICA to PRU (as well as VASP and LTA) was fixed to 90%. […] It is anticipated that this parameter value would be large^13 so it was fixed at a large value. […] This value was chosen based on literature^9, 14. Finally, fm was set equal to 0.30.
For parameters that were to be estimated, most of the prior distributions were uninformative or weakly informative.

[3] = Final population PK/PD model: PK parameters of TICA, TAM, PB2452 and complexes; format: in vivo, human
Protocol: A diagram of the model considered is in FIG. 1. Ticagrelor is dosed orally and passes through 2 transit compartments prior to entering the central compartment. […] PB2452 is dosed IV, and directly enters the central compartment. PB2452 can also diffuse into a peripheral compartment. […] In the model, it is assumed that the complexes are cleared at the same rate as PB2452. Additional compartments for the complex to enter where TICA and TAM return to circulation while PB2452 is removed from the system is also included in the model.
The expected result would be an increase in PRI/LTA/VASP to baseline (pre-ticagrelor administration) levels. Baseline PRU/LTA/VASP were added in the models observed value from the data for each subject. An ETA term was added to allow for potential measurement error. […] Astrand et al. (2019).
(§1) The PK parameters associated with this model are in Table 2. […] In the PK/PD model, the parameters associated with the PK of PB2452 (that are not associated with the relationship between PB2452/TICA/TAM) were fixed to these values.
(§2) To achieve improved fit to the study data, multiple adjustments were made to the model. […] These updates led to significant improvements in the fit of the model to the data.
The final step in model development was addition of significant covariates. […] Based on the covariate plots for the final model with the covariates included, no other covariates were added.

[4] = tested on: P2Y12 reactivity units (PRU); conditions: fixed in model, not estimated; cited from earlier work
[5] = tested on: P2Y12 receptor-induced platelet aggregation and P2Y12 receptor signaling; experiment: Phase 1 trial: reversal of the antiplatelet effects of ticagrelor (PRU/LTA/VASP); format: in vivo, human
Protocol: This model was developed during the conduct of the first-in-human study and used to inform dosing decisions throughout the study. The model was then updated with final data from the trial and will be used to inform subsequent early-phase clinical trials being conducted.
The study had 10 cohorts of healthy volunteers.
Subjects in Cohorts 4-10 were pretreated with ticagrelor for 48 hours. The first dose of ticagrelor was an oral loading dose of 180 mg followed by 90 mg administered orally twice daily for 2 days.

[6] = Population PK model of PB2452 alone (two-compartment, Cohorts 1-3); format: in vivo, human
Protocol: Population PK and PK/PD analyses were carried out using NONMEM version 7.4, PDx-Pop version 5.2 and Intel Visual Fortran Compiler version 12 on Microsoft Windows 10 Professional.
The models described in the following sections are non-linear hierarchical models that were fit using Bayesian Markov Chain Monte-Carlo (MCMC) techniques. If θ and φj represent vectors of individual PK and PD parameters, respectively, then it was assumed that they follow distributions with population parameters Θ and Φ, respectively. The parameters Θ and Φ were then assigned prior distributions according to the prior information available. The Bayesian analysis involved the estimation of the joint distribution of all parameters conditional on the observed data: p(θ, φ, Θ, Φ|PK and PD data), where θ and φ denote collections of all individual specific PK and PD parameters, respectively. Generating random samples from the joint posterior distribution allows the marginal distribution of each parameter to be completely characterized. More details on Bayesian methods in general may be found in (Lunn, Best, Thomas, Wakefield, & Spiegelhalter, 2002).
The MU referencing technique was utilized in NONMEM (Bauer, 2019). In particular, MU_1 (for example) was set equal to THETA(1). Then a particular model parameter was set equal to EXP(MU_1+ETA(1)). So, THETA represents the population value of the parameter on the log-scale. This usually helps to improve the efficiency (speed of convergence, reduced autocorrelation) of the algorithms (MCMC, but also applies to other “advanced” algorithms available) utilized.
as §1

[7] = tested on: metabolism of TICA to TAM; experiment: Final population PK/PD model: metabolism of TICA as a function of PB2452 concentration; format: in vivo, human; conditions: value is natural log of Emaxf
Text: as §2

[8] = read-out: Kd (affinity of PB2452 for TICA and TAM); fixed in model, chosen based on literature; cited from earlier work
[9] = 6 g IV bolus, then 6 g over 4 h, then 6 g over 12 h, study subjects pretreated with ticagrelor
[10] = cohorts 4, 5 and 6 (1, 3, 9 g PB2452 over 30 minutes)

Molecule: Nc1ncnc2c1ncn2[C@@H]1O[C@H](COP(=O)(O)OP(=O)(O)O)[C@@H](O)[C@H]1O [ADP, adenosine diphosphate]
Inhibition of PB2452 binding to biotinylated ticagrelor [1]: No inhibition

Molecule: Nc1ncnc2c1ncn2[C@@H]1O[C@H](COP(=O)(O)OP(=O)(O)OP(=O)(O)O)[C@@H](O)[C@H]1O [ATP, adenosine triphosphate]
Inhibition of PB2452 binding to biotinylated ticagrelor [1]: No inhibition

Molecule: CCCSc1nc(N[C@@H]2C[C@H]2c2ccc(F)c(F)c2)c2nnn([C@@H]3C[C@H](O)[C@@H](O)[C@H]3O)c2n1 [TAM]
THETA9 final estimate; Emax2 = EXP(THETA9), Emax for relating TAM to PRU ([2]; value is natural log of Emax2): 0.0181

Molecule: CCCSc1nc(N[C@@H]2C[C@H]2c2ccc(F)c(F)c2)c2nnn([C@@H]3C[C@H](OCCO)[C@@H](O)[C@H]3O)c2n1 [TICA, (1S,2S,3R,5S)-3-[7-{[(1R,2S)-2-(3,4-difluorophenyl)cyclopropyl]amino}-5-(propylthio)-3H-[1,2,3]triazolo[4,5-d]pyrimidin-3-yl]-5-(2-ydroxyethoxy)cyclopentane-1,2-diol]
EC50 ([2]; Homo sapiens, read-out: EC50 (Emax model relating uncomplexed analyte to PD measure)): > 20000 nM
THETA1 final estimate; EC50 (nmol/L) = EXP(THETA1), EC50 for relating TICA to PRU ([2]; value is natural log of EC50 in nmol/L): 10.6
Range of uncomplexed TICA expected based on the model ([3]; model-based concentration): less than 2000 nmol/L
Metabolism for TICA to TAM corresponding to fm ([3]; when no PB2452 is present): about 23%
Emax parameter relating TICA to PRU (as well as VASP and LTA) [4]: 90%

Molecule: Nc1ncnc2c1ncn2[C@@H]1O[C@H](CO)[C@@H](O)[C@H]1O [adenosine]
Inhibition of PB2452 binding to biotinylated ticagrelor [1]: No inhibition

Molecule: CCCC(=O)Nc1ncnc2c1ncn2[C@@H]1O[C@@H]2COP(=O)(O)O[C@H]2[C@H]1OC(=O)CCC [bucladesine]
Inhibition of PB2452 binding to biotinylated ticagrelor [1]: No inhibition

Molecule: CSCCNc1nc(SCCC(F)(F)F)nc2c1ncn2[C@@H]1O[C@H](COP(=O)(O)OP(=O)(O)C(Cl)(Cl)P(=O)(O)O)[C@@H](O)[C@H]1O [cangrelor]
Inhibition of PB2452 binding to biotinylated ticagrelor [1]: No inhibition

Molecule: NS(=O)(=O)c1cc2c(cc1Cl)NC(C1CC3C=CC1C3)NS2(=O)=O (stereo not shown) [cyclothiazide]
Inhibition of PB2452 binding to biotinylated ticagrelor [1]: No inhibition

Molecule: CC1(C)C(C=C(Cl)Cl)C1C(=O)OC(C#N)c1ccc(F)c(Oc2ccccc2)c1 (stereo not shown) [cyfluthrin]
Inhibition of PB2452 binding to biotinylated ticagrelor [1]: No inhibition

B1: PB2452: recombinant human IgG1λ monoclonal Fab antibody fragment that binds specifically to ticagrelor and TAM (antibody, listed as Homo sapiens)
heavy: QVQLQESGAEVKKPGSSVRVSCKASGGTFDSYSIHWVRQAPGQGLEWMGGIIPAFGTLSSAQDFQARVTISADKSTSTAYMELSGLRSEDTAVYYCARGSFDYYFWSASHPPNDALAIWGQGTLVTVSSASTKGPSVFPLAPSSKSTSGGTAALGCLVKDYFPEPVTVSWNSGALTSGVHTFPAVLQSSGLYSLSSVVTVPSSSLGTQTYICNVNHKPSNTKVDKRVEPKSCDK
light: QSVVTQPPSVSAAPGQKVTISCSGSNSDIGNNYVSWYQQLPGTAPKLLIYDNNKRPSGIPDRFSGSKSGTSATLAITGLQAGDEADYYCGTWLYDRAVGLFGGGTKVTVLGQPKAAPSVTLFPPSSEELQANKATLVCLISDFYPGAVTVAWKADSSPVKAGVETTTPSKQSNNKYAASSYLSLTPEQWKSHRSYSCQVTHEGSTVEKTVAPTECS
modifications: PB2452 VH with CH1; PB2452 VL with CL
Time for which complete reversal was sustained [5, 9]: 20 to 24 h
Time from infusion onset to complete reversal of the antiplatelet effects of ticagrelor [5, 9]: ≤ 5 min
Effect of higher dose and prolonged infusion on PRU ([5]; cohort 7 and those that followed (18 g, bolus plus prolonged infusion)): prolonged the increase in PRU
Effect on PRU after cessation of infusion ([5]; cohort 7 and those that followed, despite dose escalation): unexpected loss of effect was observed post-cessation of the drug infusion
Duration of early effect on PRU before return to post-TICA levels [5, 10]: less than two
Early effect on PRU [5, 10]: the PRU values were increased close to values before TICA was administered
Central volume of distribution ([6]; IV, Cohorts 1-3): 2.86 L
Clearance ([6]; IV, Cohorts 1-3): 1.88 L/h
Half-life for the distribution phase ([6]; IV, Cohorts 1-3): 0.81 h
Half-life for the elimination phase ([6]; IV, Cohorts 1-3): 6.68 h
THETA3 final estimate; Q (L/hr) = EXP(THETA3) ([6]; value is natural log of Q in L/hr): −0.770
THETA2 final estimate; V1 (L) = EXP(THETA2) ([6]; value is natural log of V1 in L): 1.05
THETA4 final estimate; V2 (L) = EXP(THETA4) ([6]; value is natural log of V2 in L): 1.24
THETA6 final estimate; Emaxf = EXP(THETA6), Emax for relating metabolism of TICA to PB2452 concentrations [7]: 2.98
THETA4 final estimate; Ktr (hr^−1) = EXP(THETA4 + THETA13*(LOG(WT) − 4.35)) ([3]; value is natural log of Ktr, rate at which PB2452-TICA and PB2452-TAM complexes move through the added compartments): −1.22
Kd [8]: 0.018 nM

Continued, values first:

Inhibition of PB2452 binding to biotinylated ticagrelor [1]: No inhibition
Molecule: O=C1CCc2cc(OCCCCc3nnnn3C3CCCCC3)ccc2N1 [cilostazol]

Inhibition of PB2452 binding to biotinylated ticagrelor [1]: No inhibition
Molecule: CC(=O)NC[C@H]1CN(c2ccc(N3CCOCC3)c(F)c2)C(=O)O1 [linezolid]

Inhibition of PB2452 binding to biotinylated ticagrelor [1]: No inhibition
Molecule: CC[C@H](C)C(=O)O[C@H]1C[C@@H](C)C=C2C=C[C@H](C)[C@H](CC[C@@H]3C[C@@H](O)CC(=O)O3)[C@H]21 [lovastatin]

Inhibition of PB2452 binding to biotinylated ticagrelor [1]: No inhibition
Molecule: COC(=O)C1=C(C#N)NC(C)=C(C(=O)OC(C)C)C1c1cccc([N+](=O)[O-])c1 (stereo not shown) [nilvadipine]

Inhibition of PB2452 binding to biotinylated ticagrelor [1]: No inhibition
Molecule: CNC(=O)c1cnn(-c2nc(N)c3ncn([C@@H]4O[C@H](CO)[C@@H](O)[C@H]4O)c3n2)c1 [regadenoson]
